Laboratory results as given in patent US20050232975A1, “Composition and method to improve quality and yield of meat products” (priority 2002, published 2005).

Columns and labels:
Format in all cases: in vivo
beef cattle [1] = assay: Example I: water retention (drip loss, moisture, free/bound/immobile water) of meat cuts after one-time oral administration to beef cattle pre-harvest; parameters: Total moisture: unit not given here; conditions: about 6 hours prior to harvest
Experimental: To study the dose/response efficacy of a one-time administration of Vitamin C to beef cattle on the water retention of various cuts of meat prepared post-harvest, Applicants' studied four (4) treatments. Those treatments were is administered orally to 4 head of cattle about 6 hours prior to harvest. In a first control treatment, no Vitamin C was administered. In a second treatment, the animal's feed included about 50 grams of a phosphorylated Vitamin C sold in commerce by Roche Vitamins, Inc. under the name Rovimix® Stay-C®. In a third treatment, the animal's feed included about 100 grams of Rovimix® Stay-C®. In a fourth treatment, the animal's feed included about 150 grams of Rovimix® Stay-C®. Table I summarizes the results of this Example I. In treatments 2, 3, and 4, the phosphorylated Vitamin C was disposed in about 200 grams of grapefruit pulp. That Vitamin C/grapefruit pulp was orally administered to each of the cattle as a one-time drench. In treatment 1, the control cattle were administered the normal diet. By “LD,” Applicants mean meat products comprising the Longissimus dorsi muscle. These cuts are sold in commerce as, for example, strip loins. By “SM,” Applicants mean meat products comprising the Semimembranosus/adductor muscle. These cuts are sold in commerce as, for example, top round or inside round. By “TRI,” Applicants mean products comprising the triceps brachii muscle sometimes called the shoulder clod. These cuts are sold in commerce as, for example, beef roasts.

beef cattle [2] = assay: Example II: pH of meat cuts post-harvest after one-time oral administration to beef cattle pre-harvest; conditions: about 6 hours prior to harvest
Experimental: To study the dose/response efficacy of a one-time administration of Vitamin C to beef cattle on the pH of various cuts of meat prepared post-harvest, Applicants' studied four (4) treatments. Those treatments were is administered orally to 4 head of cattle about 6 hours prior to harvest. In a first control treatment, no Vitamin C was administered. In a second treatment, the animal's feed included about 50 grams of a phosphorylated Vitamin C sold in commerce by Roche Vitamins, Inc. under the name Rovimix® Stay-C®. In a third treatment, the animal's feed included about 100 grams of Rovimix® Stay-C®. In a fourth treatment, the animal's feed included about 150 grams of Rovimix® Stay-C®.
In treatments 2, 3, and 4, the phosphorylated Vitamin C was disposed in about 200 grams of grapefruit pulp. That Vitamin C/grapefruit pulp was orally administered to each of the cattle as a one-time bolus. In treatment 1, the control cattle were administered their normal diet.

[3] = Vitamin C in the blood after oral administration to cattle
Experimental: Applicants have learned that oral administration of Vitamin C to cattle results in measurable Vitamin C in the blood in about 45 minutes. These blood levels reach a maximum level between about 45 minutes and about 2 hours. In certain embodiments, Applicants orally administer their composition to a meat-producing animal about 45 minutes prior to harvest. In certain embodiments, Applicants orally administer their composition to a meat-producing animal about 2 hours prior to harvest. In certain embodiments, Applicants orally administer their composition to a meat-producing animal about 6 hours prior to harvest. In certain embodiments, Applicants orally administer their composition to a meat-producing animal about 18 hours prior to harvest. In certain embodiments, Applicants orally administer their composition to a meat-producing animal about 24 hours prior to harvest. In certain embodiments, Applicants orally administer their composition to a meat-producing animal about 48 hours prior to harvest

[4] = 0 min after harvest, 50 grams oral
[5] = 0 min after harvest, 100 grams oral
[6] = 0 min after harvest, 150 grams oral
[7] = 30 min after harvest, 50 grams oral
[8] = 30 min after harvest, 100 grams oral
[9] = 30 min after harvest, 150 grams oral
[10] = 60 min after harvest, 50 grams oral
[11] = 60 min after harvest, 100 grams oral
[12] = 60 min after harvest, 150 grams oral
[13] = 90 min after harvest, 50 grams oral
[14] = 90 min after harvest, 100 grams oral
[15] = 90 min after harvest, 150 grams oral
[16] = 120 min after harvest, 50 grams oral
[17] = 120 min after harvest, 100 grams oral
[18] = 120 min after harvest, 150 grams oral
[19] = 150 min after harvest, 50 grams oral
[20] = 150 min after harvest, 100 grams oral
[21] = 150 min after harvest, 150 grams oral
[22] = 180 min after harvest, 50 grams oral
[23] = 180 min after harvest, 100 grams oral
[24] = 180 min after harvest, 150 grams oral

- time to measurable Vitamin C in the blood ([3]; bovine, in vivo, po): about 45 minutes
- time at which blood levels reach a maximum level ([3]; oral administration to cattle): about 45 minutes and about 2 hours
Compound: O=C1O[C@H]([C@@H](O)CO)C(O)=C1O [Vitamin C, L-ascorbic acid]
- Percent moisture (beef cattle [1]; LD cut, 50 grams oral): 0.7021
- Total moisture (beef cattle [1]; LD cut, 50 grams oral): 384.78
- Total moisture (beef cattle [1]; LD cut, 100 grams oral): 366.33
- Bound water (beef cattle [1]; LD cut, 150 grams oral): 78.6805%
- Free water (beef cattle [1]; LD cut, 150 grams oral): 21.3195%
- Immobile water (beef cattle [1]; LD cut, 150 grams oral): 57.3609%
- Total moisture (beef cattle [1]; LD cut, 150 grams oral): 354.2
- Bound water (beef cattle [1]; SM cut, 50 grams oral): 80.5196%
- Free water (beef cattle [1]; SM cut, 50 grams oral): 19.4804%
- Immobile water (beef cattle [1]; SM cut, 50 grams oral): 61.0392%
- Percent moisture (beef cattle [1]; SM cut, 50 grams oral): 0.6522
- Total moisture (beef cattle [1]; SM cut, 50 grams oral): 353.36
- Bound water (beef cattle [1]; SM cut, 100 grams oral): 83.959%
- Free water (beef cattle [1]; SM cut, 100 grams oral): 16.041%
- Immobile water (beef cattle [1]; SM cut, 100 grams oral): 67.918%
- Total moisture (beef cattle [1]; SM cut, 100 grams oral): 365.7
- Bound water (beef cattle [1]; SM cut, 150 grams oral): 75.6853%
- Free water (beef cattle [1]; SM cut, 150 grams oral): 24.3147%
- Immobile water (beef cattle [1]; SM cut, 150 grams oral): 51.3706%
- Total moisture (beef cattle [1]; SM cut, 150 grams oral): 371.99
- Bound water (beef cattle [1]; TRI cut, 50 grams oral): 77.269%
- Free water (beef cattle [1]; TRI cut, 50 grams oral): 22.731%
- Immobile water (beef cattle [1]; TRI cut, 50 grams oral): 54.5381%
- Percent moisture (beef cattle [1]; TRI cut, 50 grams oral): 0.7019
- Total moisture (beef cattle [1]; TRI cut, 50 grams oral): 376.45
- Total moisture (beef cattle [1]; TRI cut, 100 grams oral): 361.8
- Bound water (beef cattle [1]; TRI cut, 150 grams oral): 81.0096%
- Free water (beef cattle [1]; TRI cut, 150 grams oral): 18.9904%
- Immobile water (beef cattle [1]; TRI cut, 150 grams oral): 62.0192%
- Total moisture (beef cattle [1]; TRI cut, 150 grams oral): 399.11
- Measured pH Of Beef Roast (beef cattle [2]; [4]): 6.82
- Measured pH Of Strip Loin (beef cattle [2]; [4]): 6.78
- Measured pH Of Top Round Cuts (beef cattle [2]; [4]): 6.70
- Measured pH Of Beef Roast (beef cattle [2]; [5]): 6.73
- Measured pH Of Strip Loin (beef cattle [2]; [5]): 6.78
- Measured pH Of Top Round Cuts (beef cattle [2]; [5]): 6.70
- Measured pH Of Beef Roast (beef cattle [2]; [6]): 6.77
- Measured pH Of Strip Loin (beef cattle [2]; [6]): 6.76
- Measured pH Of Top Round Cuts (beef cattle [2]; [6]): 6.64
- Measured pH Of Beef Roast (beef cattle [2]; [7]): 6.41
- Measured pH Of Strip Loin (beef cattle [2]; [7]): 6.45
- Measured pH Of Top Round Cuts (beef cattle [2]; [7]): 6.46
- Measured pH Of Beef Roast (beef cattle [2]; [8]): 6.43
- Measured pH Of Strip Loin (beef cattle [2]; [8]): 6.45
- Measured pH Of Top Round Cuts (beef cattle [2]; [8]): 6.44
- Measured pH Of Beef Roast (beef cattle [2]; [9]): 6.44
- Measured pH Of Strip Loin (beef cattle [2]; [9]): 6.36
- Measured pH Of Top Round Cuts (beef cattle [2]; [9]): 6.47
- Measured pH Of Beef Roast (beef cattle [2]; [10]): 6.19
- Measured pH Of Strip Loin (beef cattle [2]; [10]): 6.22
- Measured pH Of Top Round Cuts (beef cattle [2]; [10]): 6.12
- Measured pH Of Beef Roast (beef cattle [2]; [11]): 6.19
- Measured pH Of Strip Loin (beef cattle [2]; [11]): 6.25
- Measured pH Of Top Round Cuts (beef cattle [2]; [11]): 6.36
- Measured pH Of Beef Roast (beef cattle [2]; [12]): 6.26
- Measured pH Of Strip Loin (beef cattle [2]; [12]): 6.22
- Measured pH Of Top Round Cuts (beef cattle [2]; [12]): 6.20
- Measured pH Of Beef Roast (beef cattle [2]; [13]): 6.11
- Measured pH Of Strip Loin (beef cattle [2]; [13]): 6.00
- Measured pH Of Top Round Cuts (beef cattle [2]; [13]): 5.84
- Measured pH Of Beef Roast (beef cattle [2]; [14]): 6.05
- Measured pH Of Strip Loin (beef cattle [2]; [14]): 6.02
- Measured pH Of Top Round Cuts (beef cattle [2]; [14]): 6.05
- Measured pH Of Beef Roast (beef cattle [2]; [15]): 6.06
- Measured pH Of Strip Loin (beef cattle [2]; [15]): 6.07
- Measured pH Of Top Round Cuts (beef cattle [2]; [15]): 5.91
- Measured pH Of Beef Roast (beef cattle [2]; [16]): 6.10
- Measured pH Of Strip Loin (beef cattle [2]; [16]): 5.83
- Measured pH Of Top Round Cuts (beef cattle [2]; [16]): 5.75
- Measured pH Of Beef Roast (beef cattle [2]; [17]): 5.96
- Measured pH Of Strip Loin (beef cattle [2]; [17]): 5.78
- Measured pH Of Top Round Cuts (beef cattle [2]; [17]): 5.81
- Measured pH Of Beef Roast (beef cattle [2]; [18]): 5.91
- Measured pH Of Strip Loin (beef cattle [2]; [18]): 5.88
- Measured pH Of Top Round Cuts (beef cattle [2]; [18]): 5.78
- Measured pH Of Beef Roast (beef cattle [2]; [19]): 6.01
- Measured pH Of Strip Loin (beef cattle [2]; [19]): 5.75
- Measured pH Of Top Round Cuts (beef cattle [2]; [19]): 5.60
- Measured pH Of Beef Roast (beef cattle [2]; [20]): 5.89
- Measured pH Of Strip Loin (beef cattle [2]; [20]): 5.76
- Measured pH Of Top Round Cuts (beef cattle [2]; [20]): 5.59
- Measured pH Of Beef Roast (beef cattle [2]; [21]): 5.80
- Measured pH Of Strip Loin (beef cattle [2]; [21]): 5.66
- Measured pH Of Top Round Cuts (beef cattle [2]; [21]): 5.67
- Measured pH Of Beef Roast (beef cattle [2]; [22]): 5.87
- Measured pH Of Strip Loin (beef cattle [2]; [22]): 5.67
- Measured pH Of Top Round Cuts (beef cattle [2]; [22]): 5.53
- Measured pH Of Beef Roast (beef cattle [2]; [23]): 5.83
- Measured pH Of Strip Loin (beef cattle [2]; [23]): 5.59
- Measured pH Of Top Round Cuts (beef cattle [2]; [23]): 5.55
- Measured pH Of Beef Roast (beef cattle [2]; [24]): 5.79
- Measured pH Of Strip Loin (beef cattle [2]; [24]): 5.50
- Measured pH Of Top Round Cuts (beef cattle [2]; [24]): 5.57
